Experimental data taken from patent US20190225650A1, “PEPTIDOMIMETIC MACROCYCLES AND USE THEREOF IN REGULATING HIF1ALPHA” (AILERON THERAPEUTICS, INC., priority 2013, published 2019).
Bridge positions count the residues as written; N and C are the ends. Square brackets hold non-standard residues; d marks the D form. Peptide text beside a SMILES is read from it. R8 = C=CCCCCCC[C@@](C)(N)C(=O)O; S5 = C=CCCC[C@](C)(N)C(=O)O; Nle = CCCC[C@H](N)C(=O)O

What was measured:
HRE-bla ME-180 cells [1] = assay: Reporter gene assay (HRE-bla ME-180 HIF reporter, GeneBLAzer); type: cell-based, human; details: for EC50: 24 hour normoxia
Summary of the method: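 A FRET β-lactamase readout of HIF transcription was used. After compound treatment in 0.3% DMSO/media under normoxic conditions, 20 μl of 6× LiveBLAzer-FRET B/G (CCF4-AM) substrate was added. Plates sat 3 hr at room temperature in the dark and were read at 409 Ex/460Em and 409Ex/530Em on a Synergy 2. Inhibition was compared against DMSO vehicle controls, with chetomin as positive control.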

HRE-bla ME-180 cells [2] = assay: Cell proliferation assay (viability, MTT, 1% FBS); type: cell-based, human
Summary of the method: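 Viable cell number was measured with the CellTiter 96 (MTT) kit after compounds were applied for a 16 h normoxic (21% O2) pretreatment, followed by further normoxic or hypoxic (1% O2) culture. Cells: 2×10^4 ME-180 per well, Opti-MEM + 1% FBS, 0.5% DMSO vehicle.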

[3] = biological target: T1, flag-tagged HIF1α (AA 786-826) / His6-tagged p300 (AA 323-423) complex (Homo sapiens, UniProt Q09472); assay: HIF1α p300 displacement assay (TR FRET, +CHAPS); type: binding; details: read-out: IC50 (nM) (HIF1α_p300 Displacement + CHAPS)
T1 construct: His6-tagged p300 (AA 323-423); made in house; host or cells: E. coli (pETDuet vector)
Summary of the method: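 In this TR-FRET displacement format, peptides compete HIF1α C-terminal transactivation domain off p300-CH. They were preincubated 1 h at room temperature with 300 nM complex in HEPES pH 7.4/NaCl buffer with 7.5 mM CHAPS and 1 mM DTT. Anti-His-D2 (4 nM) and anti-Flag-K (0.5 μM) followed for 2 h, and a one-site fit of the fluorescence ratio gave IC50.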

EC50 (HRE-bla ME-180 cells [1]) [µM]	IC50 [3] [nM]	SMILES	18 h Avg % max inhibition at top conc (HIF Rptr-24 hrs normoxia) (μM) (HRE-bla ME-180 cells [1])	Viability 1% FBS AVG (MTT V3-24 hr Normoxia) (μM) (HRE-bla ME-180 cells [2])
15 to 30	400 to 700	CCCC[C@H](NC(=O)[C@H](Cc1ccccc1)NC(=O)[C@@H](NC(=O)[C@H](CCC(=O)O)NC(=O)[C@H](CCC(N)=O)NC(=O)[C@H](CC(=O)O)NC(=O)[C@@H](NC(=O)[C@H](Cc1ccccc1)NC(C)=O)[C@@H](C)CC)C(C)C)C(=O)N[C@@]1(C)CCCC=CCCC[C@@](C)(C(=O)N[C@@H](CCCC)C(=O)N[C@@H](C)C(=O)N[C@@H](CC(C)C)C(=O)N[C@@H](CC(=O)O)C(=O)N[C@@H](CCCNC(=N)N)C(=O)N[C@H](C(N)=O)[C@@H](C)CC)NC(=O)[C@H]([C@@H](C)CC)NC(=O)[C@H](C(C)C)NC(=O)[C@H](CC(C)C)NC1=O [SP-269] (Ac-FIDQEVF[Nle][S5]LVI[S5][Nle]ALDRI-NH2; staple 9-13)	+++ (≤25 but <50: +++)	++++ (≥30: ++++)
≤ 5	> 700	CCCC[C@H](NC(=O)[C@H](CCC(=O)O)NC(=O)[C@]1(C)CCCC=CCCCCCC[C@@](C)(NC(=O)[C@H](CCC(=O)O)NC(=O)[C@H](CC(=O)O)NC(=O)[C@@H](NC(=O)[C@H](CC(N)=O)NC(=O)[C@@H](NC(=O)[C@H](CCC(N)=O)NC(=O)[C@]2(C)CCCC=CCCC[C@](C)(NC(=O)[C@H](CC(C)C)NC(=O)[C@H](CCC(=O)O)NC(=O)[C@H](CCC(=O)O)NC(=O)CNC(=O)[C@H](CCC(N)=O)NC(=O)[C@H](CC(C)C)NC(=O)[C@H](CC(C)C)NC(C)=O)C(=O)N[C@@H](CCCNC(=N)N)C(=O)N[C@@H](C)C(=O)N[C@@H](CC(C)C)C(=O)N2)C(C)C)[C@@H](C)CC)C(=O)N[C@@H](C(C)C)C(=O)N[C@@H](CC(C)C)C(=O)N[C@@H](CCCC)C(=O)N[C@@H](CO)C(=O)N[C@@H](CC(C)C)C(=O)N[C@@H](C(C)C)C(=O)N1)C(=O)NCC(N)=O [SP-312] (Ac-LLQGEEL[S5]RAL[S5]QVNIDE[R8]VL[Nle]SLV[S5]E[Nle]G-NH2; staple 8-12, 19-26)	++++ (≥50: ++++)	++++ (≥30: ++++)
> 30	> 700	CC[C@H](C)[C@H](NC(=O)[C@H](Cc1ccccc1)NC(C)=O)C(=O)N[C@@H](CC(=O)O)C(=O)N[C@@H](CCC(=O)O)C(=O)N[C@@H](CCC(=O)O)C(=O)N[C@H](C(=O)N[C@@H](CC(C)C)C(=O)N[C@@H](CCSC)C(=O)N[C@@]1(C)CCCC=CCCC[C@@](C)(C(=O)N[C@@H](CCSC)C(=O)N[C@@H](C)C(=O)N[C@@H](CC(C)C)C(N)=O)NC(=O)[C@H]([C@@H](C)CC)NC(=O)[C@H](C(C)C)NC(=O)[C@H](Cc2ccccc2)NC1=O)C(C)C [SP-236] (Ac-FIDEEVLM[S5]FVI[S5]MAL-NH2; staple 9-13)	+++ (≤25 but <50: +++)	++++ (≥30: ++++)
> 30	200 to 400	CC[C@H](C)[C@H](NC(=O)[C@H](CC(N)=O)NC(=O)[C@@H](NC(=O)[C@H](CCC(N)=O)NC(=O)[C@H](CC(=O)O)NC(=O)[C@H](CC(C)C)NC(=O)[C@H](C)NC(=O)[C@H](CCCNC(=N)N)NC(=O)[C@H](CC(C)C)NC(=O)[C@H](CC(C)C)NC(=O)[C@H](CCC(=O)O)NC(=O)[C@H](CCC(=O)O)NC(=O)CNC(=O)[C@H](CCC(N)=O)NC(=O)[C@H](CC(C)C)NC(=O)[C@H](CC(C)C)NC(C)=O)C(C)C)C(=O)N[C@@H](CC(=O)O)C(=O)N[C@@H](CCC(=O)O)C(=O)N[C@]1(C)CCCCCCC=CCCC[C@@](C)(C(=O)N[C@@H](CCC(=O)O)C(=O)N[C@@H](CCSC)C(N)=O)NC(=O)[C@H](C(C)C)NC(=O)[C@H](CC(C)C)NC(=O)[C@H](CO)NC(=O)[C@H](CCSC)NC(=O)[C@H](CC(C)C)NC(=O)[C@H](C(C)C)NC1=O [SP-320] (Ac-LLQGEELLRALDQVNIDE[R8]VLMSLV[S5]EM-NH2; staple 19-26)	+ (<10: +)	++++ (≥30: ++++)
> 30	≤ 200	CCCC[C@H](NC(=O)[C@H](CC(C)C)NC(=O)[C@@H](NC(=O)[C@H](CCC(=O)O)NC(=O)[C@H](CCC(=O)O)NC(=O)[C@H](CC(=O)O)NC(=O)[C@@H](NC(=O)[C@H](CC(N)=O)NC(=O)[C@@H](NC(=O)[C@H](CCC(N)=O)NC(=O)[C@H](CC(=O)O)NC(=O)[C@H](CC(C)C)NC(=O)[C@H](C)NC(=O)[C@H](CCCNC(=N)N)NC(=O)[C@]1(C)CCCC=CCCC[C@](C)(NC(=O)[C@H](CCC(N)=O)NC(=O)[C@H](CC(C)C)NC(=O)[C@H](CC(C)C)NC(C)=O)C(=O)N[C@@H](CCC(=O)O)C(=O)N[C@@H](CCC(=O)O)C(=O)N[C@@H](CC(C)C)C(=O)N1)C(C)C)[C@@H](C)CC)C(C)C)C(=O)N[C@@]1(C)CCCC=CCCC[C@@](C)(C(=O)N[C@@H](CCCC)C(=O)NCC(N)=O)NC(=O)[C@H]([C@@H](C)CC)NC(=O)[C@H](C(C)C)NC(=O)[C@H](CC(C)C)NC1=O [SP-306] (Ac-LLQ[S5]EEL[S5]RALDQVNIDEEVL[Nle][S5]LVI[S5][Nle]G-NH2; staple 4-8, 23-27)	+++ (≤25 but <50: +++)	++++ (≥30: ++++)
> 30	400 to 700	CC[C@H](C)[C@H](NC(=O)[C@H](Cc1ccccc1)NC(C)=O)C(=O)N[C@@H](CC(=O)O)C(=O)N[C@@H](CCC(=O)O)C(=O)N[C@@H](CCC(N)=O)C(=O)N[C@H](C(=O)N[C@@H](CC(C)C)C(=O)N[C@@H](CCSC)C(=O)N[C@@]1(C)CCCC=CCCC[C@@](C)(C(=O)N[C@@H](CCSC)C(=O)N[C@@H](C)C(=O)N[C@@H](CC(C)C)C(N)=O)NC(=O)[C@H]([C@@H](C)CC)NC(=O)[C@H](C(C)C)NC(=O)[C@H](CC(C)C)NC1=O)C(C)C [SP-234] (Ac-FIDEQVLM[S5]LVI[S5]MAL-NH2; staple 9-13)	+++ (≤25 but <50: +++)	++++ (≥30: ++++)
> 30	> 700	CCCC[C@H](NC(=O)[C@H](C)NC(=O)[C@]1(C)CCCC=CCCCCCC[C@@](C)(NC(=O)[C@H](CCC(=O)O)NC(=O)[C@H](CC(=O)O)NC(=O)[C@@H](NC(=O)[C@H](CC(N)=O)NC(=O)[C@@H](NC(=O)[C@H](CCC(N)=O)NC(=O)[C@]2(C)CCCC=CCCC[C@](C)(NC(=O)[C@H](CC(C)C)NC(=O)[C@H](CCC(=O)O)NC(=O)[C@H](CCC(=O)O)NC(=O)CNC(=O)[C@H](CCC(N)=O)NC(=O)[C@H](CC(C)C)NC(=O)[C@H](CC(C)C)NC(C)=O)C(=O)N[C@@H](CCCNC(=N)N)C(=O)N[C@@H](C)C(=O)N[C@@H](CC(C)C)C(=O)N2)C(C)C)[C@@H](C)CC)C(=O)N[C@@H](C(C)C)C(=O)N[C@@H](CC(C)C)C(=O)N[C@@H](CCCC)C(=O)N[C@@H](CO)C(=O)N[C@@H](CC(C)C)C(=O)N[C@@H](C(C)C)C(=O)N1)C(N)=O [SP-363] (Ac-LLQGEEL[S5]RAL[S5]QVNIDE[R8]VL[Nle]SLV[S5]A[Nle]-NH2; staple 8-12, 19-26)	++ (≤10 but <25: ++)	++++ (≥30: ++++)
5 to 15	200 to 400	CCCC[C@@H]1NC(=O)[C@H](CC(C)C)NC(=O)[C@H](C(C)C)NC(=O)[C@@](C)(NC(=O)[C@H](CCC(=O)O)NC(=O)[C@H](CC(=O)O)NC(=O)[C@@H](NC(=O)[C@H](Cc2ccccc2)NC(C)=O)[C@@H](C)CC)CCCC=CCCCC2(CCCC=CCCC[C@](C)(C(=O)N[C@@H](CCC(N)=O)C(=O)N[C@@H](C)C(=O)N[C@@H](CC(C)C)C(N)=O)NC(=O)[C@H]([C@@H](C)CC)NC(=O)[C@H](C(C)C)NC(=O)[C@H](CC(C)C)NC2=O)NC1=O (stereo partly drawn) [SP-212]	++++ (≥50: ++++)	++ (≤5 but <15: ++)

SMILES	EC50 (HRE-bla ME-180 cells [1]) [µM]	IC50 [3] [nM]	18 h Avg % max inhibition at top conc (HIF Rptr-24 hrs normoxia) (μM) (HRE-bla ME-180 cells [1])	Viability 1% FBS AVG (MTT V3-24 hr Normoxia) (μM) (HRE-bla ME-180 cells [2])
CCCC[C@H](NC(=O)[C@H](CCC(=O)O)NC(=O)[C@]1(C)CCCC=CCCCCCC[C@@](C)(NC(=O)[C@H](CCC(=O)O)NC(=O)[C@H](C)NC(=O)[C@H](C)NC(=O)[C@H](C)NC(=O)[C@H](C)NC(=O)[C@]2(C)CCCC=CCCCCCC[C@@](C)(NC(=O)[C@H](CCC(=O)O)NC(=O)CNC(=O)[C@H](CCC(N)=O)NC(=O)[C@H](CC(C)C)NC(=O)[C@H](CC(C)C)NC(C)=O)C(=O)N[C@@H](CC(C)C)C(=O)N[C@@H](CC(C)C)C(=O)N[C@@H](CCCNC(=N)N)C(=O)N[C@@H](C)C(=O)N[C@@H](CC(C)C)C(=O)N[C@@H](CC(=O)O)C(=O)N2)C(=O)N[C@@H](C(C)C)C(=O)N[C@@H](CC(C)C)C(=O)N[C@@H](CCCC)C(=O)N[C@@H](CO)C(=O)N[C@@H](CC(C)C)C(=O)N[C@@H](C(C)C)C(=O)N1)C(N)=O [SP-352] (Ac-LLQGE[R8]LLRALD[S5]AAAAE[R8]VL[Nle]SLV[S5]E[Nle]-NH2; staple 6-13, 19-26)	> 30	≤ 200	++ (≤10 but <25: ++)	++++ (≥30: ++++)
